# Laboratory results reported in BindingDB's records for doi:10.1158/2159-8290.CD-13-1010 (Fred Hutchinson Cancer Research Center, 2014).
# Target: Transmembrane protease serine 2 (Homo sapiens, UniProt O15393)
# Assay: titration assay
# Source text: To identify inhibitors of TMPRSS2 that may be used directly in clinical studies or as lead compounds to develop targeted drugs, we screened several chemical libraries with active TMPRSS2 protease, the […] TMPRSS2 peptide substrate Boc-Gln-Ala-Arg-MCA, and compound concentrations of 5 μmol/L. We have used a similar approach to identify inhibitors of the hepsin protease.
# Chain of Transmembrane protease serine 2 (O15393 1-255 limits assumed): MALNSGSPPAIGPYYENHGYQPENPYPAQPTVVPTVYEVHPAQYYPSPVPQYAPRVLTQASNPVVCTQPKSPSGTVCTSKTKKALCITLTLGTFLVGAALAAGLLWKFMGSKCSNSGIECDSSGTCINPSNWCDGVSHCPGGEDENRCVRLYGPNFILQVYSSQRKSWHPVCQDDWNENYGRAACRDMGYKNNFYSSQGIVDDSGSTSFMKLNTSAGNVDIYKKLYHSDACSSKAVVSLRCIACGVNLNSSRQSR
# Chain of Transmembrane protease serine 2 (O15393 256-492 limits assumed): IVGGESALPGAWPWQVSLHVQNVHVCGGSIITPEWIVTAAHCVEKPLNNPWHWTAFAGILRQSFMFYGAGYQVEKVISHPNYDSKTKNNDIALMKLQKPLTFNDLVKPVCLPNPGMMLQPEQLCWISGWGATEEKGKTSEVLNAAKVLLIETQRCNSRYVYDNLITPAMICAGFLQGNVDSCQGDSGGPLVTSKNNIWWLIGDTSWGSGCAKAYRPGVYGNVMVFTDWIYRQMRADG
row,IC50,Compound
1,930 nM,COC(=O)c1ccc(OC(=O)c2cccs2)cc1 [0591-5329]
2,1370 nM,COC(=O)Cc1cc(=O)oc2cc(O)ccc12
3,2680 nM,CCN1CCn2c3c(c4cc(Br)ccc42)CCCC31 (stereo not given) [4401-0077]
4,750 nM,CN(Cc1cc(Br)cc(Br)c1N)C1CCCCC1 [Bromhexine]
5,2640 nM,CCn1c(-c2ccc(Cl)cc2)csc1=Nc1ccccc1 [8008-1235]
